Experimental data: ChEMBL document CHEMBL1201862, “PubChem BioAssay data set” (2004)
Calls of active or inactive are those of the source. Peptide text beside a SMILES is read from it.

Key:
Cytochrome P450 2D6 = Cytochrome P450 2D6 (Homo sapiens, UniProt P10635);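 note: CYP2D6 member of a cytochrome P450 panel assay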
Cytochrome P450 2C19 = Cytochrome P450 2C19 (Homo sapiens, UniProt P33261); experiment: Cytochrome panel assay with activity outcomes. Panel member name: p450-cyp2c19 Compounds with AC50 equal or less than 10 uM are considered active; format: functional; settings: read-out: AC50
Sequence of Cytochrome P450 2C19 (P33261 whole entry): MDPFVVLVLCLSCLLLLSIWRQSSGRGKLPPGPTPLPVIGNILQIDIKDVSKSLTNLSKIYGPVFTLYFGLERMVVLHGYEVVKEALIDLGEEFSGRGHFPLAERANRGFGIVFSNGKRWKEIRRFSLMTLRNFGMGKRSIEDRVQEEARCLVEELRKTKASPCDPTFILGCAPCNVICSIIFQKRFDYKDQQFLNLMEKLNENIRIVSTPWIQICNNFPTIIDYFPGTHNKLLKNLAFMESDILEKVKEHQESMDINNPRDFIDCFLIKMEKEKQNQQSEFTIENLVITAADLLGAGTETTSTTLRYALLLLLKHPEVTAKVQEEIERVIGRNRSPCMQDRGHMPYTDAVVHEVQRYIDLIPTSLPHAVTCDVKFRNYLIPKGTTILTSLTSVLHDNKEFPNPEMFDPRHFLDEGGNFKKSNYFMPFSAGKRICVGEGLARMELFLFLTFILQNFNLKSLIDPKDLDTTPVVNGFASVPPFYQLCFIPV

Cytochrome P450 2C9 = Cytochrome P450 2C9 (Homo sapiens, UniProt P11712)
Sequence of Cytochrome P450 2C9 (P11712 whole entry): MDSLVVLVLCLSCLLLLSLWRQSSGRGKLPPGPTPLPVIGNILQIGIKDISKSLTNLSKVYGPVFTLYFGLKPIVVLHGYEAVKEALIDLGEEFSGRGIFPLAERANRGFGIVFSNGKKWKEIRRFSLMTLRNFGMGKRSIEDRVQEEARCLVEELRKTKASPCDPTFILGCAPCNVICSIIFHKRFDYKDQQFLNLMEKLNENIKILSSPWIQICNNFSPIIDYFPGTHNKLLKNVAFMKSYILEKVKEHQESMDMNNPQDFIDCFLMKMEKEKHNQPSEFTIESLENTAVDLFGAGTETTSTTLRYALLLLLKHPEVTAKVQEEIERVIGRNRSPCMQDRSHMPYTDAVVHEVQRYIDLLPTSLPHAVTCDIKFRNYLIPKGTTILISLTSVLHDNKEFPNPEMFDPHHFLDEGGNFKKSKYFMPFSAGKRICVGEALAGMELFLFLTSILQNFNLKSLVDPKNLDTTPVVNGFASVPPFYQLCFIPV

Cytochrome P450 3A4 = Cytochrome P450 3A4 (Homo sapiens, UniProt P08684);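 note: CYP3A4 tested as one member of a cytochrome P450 panel screen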
Sequence of Cytochrome P450 3A4 (P08684 whole entry): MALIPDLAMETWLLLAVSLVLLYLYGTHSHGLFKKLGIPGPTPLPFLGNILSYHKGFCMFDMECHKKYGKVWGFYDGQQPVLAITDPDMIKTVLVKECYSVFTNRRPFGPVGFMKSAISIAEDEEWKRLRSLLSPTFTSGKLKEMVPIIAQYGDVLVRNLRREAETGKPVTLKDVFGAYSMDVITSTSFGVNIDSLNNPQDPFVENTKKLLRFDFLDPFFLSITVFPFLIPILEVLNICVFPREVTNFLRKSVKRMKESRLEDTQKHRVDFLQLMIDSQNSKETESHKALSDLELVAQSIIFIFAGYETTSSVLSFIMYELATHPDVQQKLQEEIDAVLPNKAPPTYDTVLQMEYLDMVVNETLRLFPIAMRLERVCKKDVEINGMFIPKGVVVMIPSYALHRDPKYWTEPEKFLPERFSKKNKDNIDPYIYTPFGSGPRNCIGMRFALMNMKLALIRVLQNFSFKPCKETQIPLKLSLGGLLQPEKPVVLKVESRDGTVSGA

H4 = experiment: Luminescence Cell-Based Dose Response HTS to Identify Activators of 5'UTR Stem-Loop Driven Prion Protein mRNA Translation in H4 Neuroglioblastoma Cells. [Related pubchem assays: 1829 (Project Summary), 1814 (Primary HTS)]; format: functional; settings: Homo sapiens
[1] = Luminescence Cell-Based Dose Response HTS to Identify Activators of Luciferase Translation or Activity in H4 […] Cells. [Related pubchem assays: 1829 (Project Summary), 1814 (Primary HTS)]; format: functional
[2] = target: T1, Heat shock factor protein 1 (Mus musculus, UniProt P38532); experiment: decrease of HSF1-responsive luciferase luminescence – cell-based, NIH3T3, dose retest, confirmation (AID 2382); format: functional;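 note: NIH3T3 fibroblasts with HSF1-driven luciferase reporter stressed by proteasome inhibitor MG132; luminescence from HSF1-driven luciferase expression after 8 hours of MG132 stress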
T1 sequence (P38532 whole entry): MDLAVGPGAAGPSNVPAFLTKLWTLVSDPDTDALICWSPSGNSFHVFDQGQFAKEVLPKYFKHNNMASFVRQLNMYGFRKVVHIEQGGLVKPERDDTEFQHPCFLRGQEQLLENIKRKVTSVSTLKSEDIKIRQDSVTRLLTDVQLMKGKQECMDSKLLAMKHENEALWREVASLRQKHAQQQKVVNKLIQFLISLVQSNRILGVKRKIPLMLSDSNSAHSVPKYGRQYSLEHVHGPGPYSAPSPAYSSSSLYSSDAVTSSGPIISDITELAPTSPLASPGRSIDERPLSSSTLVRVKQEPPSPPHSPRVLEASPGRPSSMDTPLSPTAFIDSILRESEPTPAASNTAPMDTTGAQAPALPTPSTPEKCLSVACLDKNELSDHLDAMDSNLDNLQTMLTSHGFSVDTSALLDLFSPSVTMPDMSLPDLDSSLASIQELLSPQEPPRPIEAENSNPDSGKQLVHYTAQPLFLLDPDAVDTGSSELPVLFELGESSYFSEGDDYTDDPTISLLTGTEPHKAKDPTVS

[3] = viability of uninfected HEp-2 cells – cell-based, HTS, cytotoxicity control for RSV inhibitor project, dose response (AID 2410); format: functional; settings: human respiratory syncytial virus
[4] = system: Streptococcus sp. 'group A'; experiment: Streptococcus pyogenes SK(-)GAS viability under kanamycin – luminescence, BacTiterGlo, confirmation, counter-screen for streptokinase expression inhibitor project, dose response (AID 1900); format: functional, organism-based
Streptococcus = experiment: GAS UMAA2166 growth inhibition – luminescence, BacTiterGlo, counter-screen for streptokinase expression inhibitor project, dose response (AID 1915); format: functional, organism-based;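 note: potency for reduction of bacterial viability or growth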
Streptokinase A = target: T2, Streptokinase A (Streptococcus pyogenes serotype M1, UniProt P10520); experiment: viability-normalized secreted streptokinase activity reduction – plasminogen activation absorbance, OD405, dose response (AID 1914); format: functional, Streptococcus pyogenes M1 GAS;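 note: secreted streptokinase activity via plasminogen activation per viability signal from cell pellet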
T2 sequence (P10520 whole entry): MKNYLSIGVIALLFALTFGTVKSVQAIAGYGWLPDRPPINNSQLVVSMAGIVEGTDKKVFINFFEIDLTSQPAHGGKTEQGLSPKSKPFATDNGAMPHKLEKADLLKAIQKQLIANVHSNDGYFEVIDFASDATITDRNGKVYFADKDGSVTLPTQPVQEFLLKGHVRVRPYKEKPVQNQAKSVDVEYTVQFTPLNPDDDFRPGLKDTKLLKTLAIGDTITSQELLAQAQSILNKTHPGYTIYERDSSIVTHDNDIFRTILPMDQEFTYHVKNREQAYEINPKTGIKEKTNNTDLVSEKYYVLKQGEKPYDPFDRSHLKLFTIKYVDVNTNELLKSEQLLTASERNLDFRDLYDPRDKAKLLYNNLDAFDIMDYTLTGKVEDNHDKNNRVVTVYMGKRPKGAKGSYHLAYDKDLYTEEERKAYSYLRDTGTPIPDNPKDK

Cytochrome P450 1A2 = target: T3, Cytochrome P450 1A2 (Homo sapiens, UniProt P05177);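 note: PubChem cytochrome P450 panel assay, CYP1A2 panel member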
T3 sequence (P05177 whole entry): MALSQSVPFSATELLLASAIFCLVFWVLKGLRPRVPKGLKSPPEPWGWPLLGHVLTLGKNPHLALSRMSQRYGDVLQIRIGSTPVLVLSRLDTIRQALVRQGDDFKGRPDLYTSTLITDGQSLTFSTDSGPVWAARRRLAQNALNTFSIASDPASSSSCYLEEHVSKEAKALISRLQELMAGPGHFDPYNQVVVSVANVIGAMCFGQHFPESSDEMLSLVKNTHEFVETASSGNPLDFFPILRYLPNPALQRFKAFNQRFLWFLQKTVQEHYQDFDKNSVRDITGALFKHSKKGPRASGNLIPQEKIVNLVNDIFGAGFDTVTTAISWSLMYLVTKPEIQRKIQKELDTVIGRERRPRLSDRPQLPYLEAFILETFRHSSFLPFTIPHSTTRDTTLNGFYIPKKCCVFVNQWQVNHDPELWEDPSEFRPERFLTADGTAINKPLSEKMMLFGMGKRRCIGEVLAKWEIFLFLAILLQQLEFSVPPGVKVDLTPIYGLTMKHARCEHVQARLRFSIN

[5] = luciferase reporter signal suppression in cells – H4 neuroglioma cells, luminescence, dose response (AID 1990); format: functional, cell-based
[6] = alpha-synuclein stem-loop luciferase translation blockers – H4 neuroglioma cells, luminescence, confirmation (AID 1988); format: functional, cell-based
Paired box protein Pax-8 = Paired box protein Pax-8 (Homo sapiens, UniProt Q06710); experiment: PAX8 transcriptional activity inhibition in RMG-I – RMG-I cells, luciferase, cherry-pick, dose response (AID 687027); format: functional, cell-based;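 note: luciferase reporter driven by Pax8 target thyroperoxidase promoter measured by SteadyGlo luminescence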
Sequence of Paired box protein Pax-8 (Q06710 whole entry): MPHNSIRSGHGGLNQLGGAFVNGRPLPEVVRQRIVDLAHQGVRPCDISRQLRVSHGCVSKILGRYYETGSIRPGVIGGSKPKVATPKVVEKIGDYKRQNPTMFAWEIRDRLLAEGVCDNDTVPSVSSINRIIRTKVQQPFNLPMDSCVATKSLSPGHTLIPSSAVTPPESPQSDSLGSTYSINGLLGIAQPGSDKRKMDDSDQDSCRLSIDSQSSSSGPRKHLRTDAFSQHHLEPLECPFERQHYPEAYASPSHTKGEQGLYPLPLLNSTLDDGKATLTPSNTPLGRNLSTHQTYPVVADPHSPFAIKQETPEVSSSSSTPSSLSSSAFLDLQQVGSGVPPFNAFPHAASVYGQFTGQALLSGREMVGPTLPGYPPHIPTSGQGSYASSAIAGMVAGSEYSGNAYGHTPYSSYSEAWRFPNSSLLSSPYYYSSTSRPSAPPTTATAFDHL

Sequence of Cytochrome P450 2D6 (P10635 whole entry): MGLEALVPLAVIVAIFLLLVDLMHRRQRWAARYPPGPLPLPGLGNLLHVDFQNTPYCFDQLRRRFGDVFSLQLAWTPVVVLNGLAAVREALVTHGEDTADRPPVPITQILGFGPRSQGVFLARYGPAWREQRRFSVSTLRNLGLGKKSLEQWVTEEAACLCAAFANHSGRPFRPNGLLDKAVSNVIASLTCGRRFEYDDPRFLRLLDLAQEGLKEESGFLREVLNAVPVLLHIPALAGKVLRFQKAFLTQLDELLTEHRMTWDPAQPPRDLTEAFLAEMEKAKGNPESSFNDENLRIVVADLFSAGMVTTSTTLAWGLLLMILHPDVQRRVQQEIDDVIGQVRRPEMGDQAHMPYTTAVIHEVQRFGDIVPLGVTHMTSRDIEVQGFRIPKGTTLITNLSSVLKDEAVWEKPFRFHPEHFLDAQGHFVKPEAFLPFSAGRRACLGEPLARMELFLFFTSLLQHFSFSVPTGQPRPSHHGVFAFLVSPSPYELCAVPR

Cc1cccc(NC2=NN=C(c3ccc4c(c3)OCCO4)CS2)c1
AC50 (Cytochrome P450 2D6): 17.8 µM (inconclusive)
AC50 (Cytochrome P450 2C19): 5.01 µM (inconclusive)
AC50 (Cytochrome P450 2C9): 5.62 µM (inconclusive)
AC50 (Cytochrome P450 3A4): 2.82 µM (inconclusive)

C=C1CCC2[C@](C)(CO)[C@H](O)CC[C@@]2(C)[C@@H]1C/C=C1\C(=O)OC[C@H]1O (some centres not stated)
EC50 (H4): 33 µM (active)
EC50 [1]: > 120 µM (not active)

Cc1cn2c(nc(=O)c3cccnc32)s1
EC50 [2]: > 195 µM (not active)

NC(=O)c1cc2n(n1)C(C(F)(F)F)CC(c1ccco1)N2 (configuration not stated)
CC50 [3]: 24.5 µM (active)

COc1cc(C=O)ccc1OC(=O)c1ccc(C(C)C)cc1
EC50 [2]: > 195 µM (not active)

O=C(NC1CCCc2ccccc21)C1CCN(S(=O)(=O)N2CCCCCC2)CC1 (configuration not stated)
AC50 (Cytochrome P450 2D6): 20 µM (inconclusive)
AC50 (Cytochrome P450 2C9): 31.6 µM (inconclusive)

Cc1ccc(/C=C/C(=O)OCC(=O)NCCN2C(=O)CSC2=O)o1
EC50 [2]: > 195 µM (not active)

CCOCc1cnc(C)nc1NCC(=O)c1c(C)[nH]c2ccccc12
AC50 (Cytochrome P450 2D6): 12.6 µM (inconclusive)

COc1cnc(-c2ccccn2)nc1Oc1ccccc1Cl
EC50 [4]: > 150 µM (not active)
EC50 (Streptococcus): > 150 µM (not active)
EC50 (Streptokinase A): > 150 µM (not active)

O=C(c1cccc(F)c1)N1CCC[C@@]2(CCN(Cc3ccncc3)C2)C1
AC50 (Cytochrome P450 2D6): 25.1 µM (inconclusive)
AC50 (Cytochrome P450 2C9): 20 µM (inconclusive)

COc1ccc(/C=C/C(=O)N2CCC(C(N)=O)CC2)cc1S(=O)(=O)N1CCOCC1
EC50 [2]: > 195 µM (not active)

CC(C)(C)C(CN1CCCC1)OC(=O)c1ccccc1 (configuration not stated)
EC50 [2]: 19.7 µM (active)

COc1cc(NS(=O)(=O)c2ccc(NC(=O)/C=C/C(=O)O)cc2)nc(OC)n1
EC50 [2]: > 195 µM (not active)

CCOCC(=O)Nc1ccc([N+](=O)[O-])cc1Cl
CC50 [3]: > 50 µM (active)

CC1CN(C(=O)c2cc(S(=O)(=O)N(C)c3ccc(F)cc3)ccc2Cl)CC(C)O1 (configuration not stated)
EC50 [2]: > 195 µM (not active)

O=C1c2ccccc2CCC12N=NCC2c1ccc(Cl)cc1 (configuration not stated)
AC50 (Cytochrome P450 2D6): 28.2 µM (inconclusive)
AC50 (Cytochrome P450 1A2): 20 µM (inconclusive)
AC50 (Cytochrome P450 3A4): 39.8 µM (inconclusive)

CC(C)Cc1csc(NC(=O)c2ccc(Br)cc2)c1C(=O)O
EC50 [4]: 3.59 µM (active)
EC50 (Streptococcus): 6.59 µM (active)
EC50 (Streptokinase A): > 150 µM (not active)

COC(=O)c1nc(NC(=S)NC(=O)c2cccs2)sc1C
EC50 [4]: 9.59 µM (active)
EC50 (Streptococcus): > 150 µM (not active)
EC50 (Streptokinase A): > 150 µM (not active)

O=C(CCCCCNC(=O)c1ccccc1)N=Nc1c(O)[nH]c2c(Br)cc(Br)cc12
EC50 [4]: 6.76 µM (active)
EC50 (Streptococcus): 28.4 µM (active)
EC50 (Streptokinase A): > 150 µM (not active)

Cc1ccc(-c2nnn(CC(=O)N(Cc3ccco3)C(C(=O)NC(C)(C)C)c3ccc(C)o3)n2)o1 (configuration not stated)
CC50 [3]: > 50 µM (active)

Fc1ccc(-n2cc(-c3ccccc3)c3c(NN4CCOCC4)ncnc32)cc1
EC50 [5]: > 120 µM (not active)
EC50 [6]: > 120 µM (not active)

FC(F)(F)c1nc2nc(Cl)c(Cl)nc2n1CCCN1CCOCC1
AC50 (Cytochrome P450 2D6): 3.98 µM (inconclusive)
AC50 (Cytochrome P450 1A2): 3.16 µM (inconclusive)
AC50 (Cytochrome P450 3A4): 5.01 µM (inconclusive)

CCc1ccc(NC(=S)N2CCN(c3cccc(C(F)(F)F)c3)CC2)cc1
AC50 (Cytochrome P450 2D6): 0.01 µM (inconclusive)
AC50 (Cytochrome P450 2C19): 4.47 µM (inconclusive)

O=C(c1nn(Cc2ccccc2)c(=O)c2ccccc12)N1CCN(C/C=C/c2ccccc2)CC1
AC50 (Cytochrome P450 2D6): 17.8 µM (inconclusive)
AC50 (Cytochrome P450 1A2): 20 µM (inconclusive)

COc1ccccc1-c1cc(NCc2cnc(C)cn2)ncn1
AC50 (Cytochrome P450 2D6): 20 µM (inconclusive)

O=c1c(CCc2ccccc2)nc2cncnc2n1-c1ccccc1
AC50 (Cytochrome P450 2D6): 25.1 µM (inconclusive)
AC50 (Cytochrome P450 2C9): 25.1 µM (inconclusive)
AC50 (Cytochrome P450 3A4): 5.01 µM (inconclusive)

CCc1c2c(nc3cccc(OC)c13)OC(CC)C2 (configuration not stated)
AC50 (Cytochrome P450 2D6): 39.8 µM (inconclusive)
AC50 (Cytochrome P450 2C19): 20 µM (inconclusive)

Cc1ccnc(NC(=O)c2cccc(S(=O)(=O)N3CCN(c4ccc(F)cc4)CC3)c2)c1
CC50 [3]: 13.4 µM (active)

O=C(c1ccccc1Cc1ccccc1)N1CCN(S(=O)(=O)c2ccccc2Br)CC1
CC50 [3]: 33.7 µM (active)

Cc1cc(OCC(=O)NCCO)cc(C)c1Cl
EC50 [2]: > 195 µM (not active)

CCCCc1ccc(NC(=O)NCc2ccccn2)cc1
EC50 [4]: > 150 µM (not active)
EC50 (Streptococcus): > 150 µM (not active)
EC50 (Streptokinase A): > 150 µM (not active)

COCC(=O)N1CCC2(CCCN(Cc3ccncc3)C2)CC1
AC50 (Cytochrome P450 2D6): 15.8 µM (inconclusive)
AC50 (Cytochrome P450 3A4): 12.6 µM (inconclusive)

C=CCNC(=O)c1c(O)c2cccc3c2n(c1=O)CCC3
CC50 [3]: > 50 µM (active)

Cc1ccc(C)c(N2CCN(C(=O)C3CCCN(c4ncnc5c4nc4n5CCCCC4)C3)CC2)c1 (configuration not stated)
CC50 [3]: 20.6 µM (active)

COc1ccc(C(=O)OC2CCN(c3ncc(C(F)(F)F)cc3Cl)CC2)cc1
EC50 [4]: 66.5 µM (active)
EC50 (Streptococcus): 39.7 µM (active)
EC50 (Streptokinase A): > 150 µM (not active)

C=C(Cl)COc1ccc2c(CCCC)cc(=O)oc2c1
CC50 [3]: 38.2 µM (active)

S=C(c1ccc(-c2ccc(Cl)c(Cl)c2)o1)N1CCOCC1
CC50 [3]: 29.4 µM (active)

COc1cccc(-c2nc(CS(=O)(=O)CC(=O)NCCCN3CC(C)CC(C)C3)c(C)o2)c1 (configuration not stated)
AC50 (Paired box protein Pax-8): 19.1 µM (active)

Oc1nc2ccccc2n1C1CCN(C(c2cccc3ccccc23)c2nnnn2-c2ccc3c(c2)OCCO3)CC1 (configuration not stated)
AC50 (Paired box protein Pax-8): 3.78 µM (active)

C/C(=N\NC(=O)c1ccc(O)cc1)c1cccc(NC(=O)c2ccccc2C)c1
EC50 [4]: > 150 µM (not active)
EC50 (Streptococcus): > 150 µM (not active)
EC50 (Streptokinase A): > 150 µM (not active)

O=C(CSc1nc2ccccc2s1)N/N=C/c1ccccc1C(=O)O
EC50 [2]: 5.59 µM (active)

Cc1ccccc1C(=O)Nc1nnc(CC(=O)N/N=C/c2ccco2)s1
EC50 [2]: > 195 µM (not active)

COC(=O)C(CC(C)C)NC(=O)C(N)Cc1ccccc1 (stereo not drawn) (H-Phe-Leu-OMe; configuration not given here)
AC50 (Cytochrome P450 2D6): 15.8 µM (inconclusive)
AC50 (Cytochrome P450 2C19): 17.8 µM (inconclusive)

CCN(CC)CCNC(=O)c1cc(Br)c(N)cc1OC [BROMOPRIDE]
AC50 (Cytochrome P450 2D6): 5.01 µM (inconclusive)
AC50 (Cytochrome P450 1A2): 10 µM (inconclusive)
